The source of these data is patent publication US20250275993A1, “GLYCOSYLATION INHIBITORS AS THERAPEUTICS FOR STROKE” (The Regents of the University of California, priority 2022, published 2025).

Data set [1] has as its system bovine choroidal microvascular endothelial cells (BCEC). Description: BCEC proliferation assay (AlamarBlue / crystal violet). It is filed as cell-based. As for the experimental part:
The effect of ManN on EC proliferation was assessed.
AlamarBlue detects mitochondria activity as an indication of cell viability which correlates with cell number at certain ranges.
Proliferation assays with BCECs and BRECs were performed. Log-phase growing BCECs or BRECs (passage <10) were trypsinized, re-suspended and seeded in 96-well plates (no coating) in low-glucose DMEM supplemented with 10% bovine calf serum, 2 mM glutamine, and antibiotics (growth medium), at a density of 1200-1500 cells per well in 200 μl volume. All reagents were added at the indicated final concentrations. After 3-6 days, cells were incubated with AlamarBlue for 4 hrs. Fluorescence was measured at 530 nm excitation wavelength and 590 nm emission wavelength. The experiments were repeated at least three times. […] 20% methanol or 0.05% DMSO served as negative controls. […] Human RMVECs and human adult DMVECs were split into Gelatin-coated 96 wells (2000 cells per well) in low glucose DMEM containing 10% FBS. 1200 cells/well was set up for proliferation assay in low glucose media containing 0.5% FBS. Data was collected at day 4 or 5. HUVEC (p7-10) were grown on gelatin-coated plate until it reached 70-80% confluency.
On the day of the assay, cells were dissociated with 0.05% trypsin, which was neutralized with 0.5% FBS-containing EBM. Cells were briefly spun and then re-suspended in 0.5% FBS-media. Cells were counted and plated in 96-well, 1000 cells/well. Triplicate wells were used for each treatment. Data were collected at day 3, and then cells were fixed in 4% paraformaldehyde for 15 min before adding crystal violet. Cell-covered areas were quantified after taking pictures by Image J software.
On the technique in general: Resazurin is reduced to fluorescent resorufin, in cell work by metabolically active cells.

Data set [2] deals with BCEC confluent monolayers. Description: BCEC scratch assay. The format is cell-based, bovine. The protocol: BCECs (passage 6-10) and HUVEC (passage 6-8) were used in this assay. Cells were grown until about 80% confluency in 6-well plates, washed twice with PBS and then starved in serum-free DMEM (low Glucose, Hyclone) for 5 hrs before making a “scratch” using 1 ml tip. Cell monolayers were briefly washed once with serum-free media, followed by various treatments in media containing 1% FBS. 48 hrs later, the assay was stopped by adding 2 ml 4% paraformaldehyde. 20 min later, fixed cells were stained with 1 ml Crystal Violet (Sigma). Plates were washed gently under the running tap water and air-dried before taking pictures. Images were acquired by ZEISS Discovery […] microscopy equipped with […] camera. Quantification of wound closure was done using AxioVision LE Rel.4.4 software. Six images were taken for each sample and six measurements (in pixel) were made on each image using AxioVision LE Re1.4.4 software.

The subject of the next data set is JNK/c-jun. Description: Western blot of JNK pathway activation in BCECs. It is filed as cell-based, bovine. As for the experimental part:
Cells were allowed to reach-80% confluency in 12-well plates. […] At various time points, plates were taken out of the incubator and kept on ice. Cell monolayers were first washed once with ice-cold PBS before lysis with 250 μI of Pierce RIPA buffer (ThermoFisher Scientific, Rockford, IL) or use 50 mM Tris-HCl (pH 7.6), 150 mM NaCl, 10% Glycerol, 1% NP-40 containing protease/Phosphatase inhibitor cocktail (100×) (Cell signaling, #5872). Lysates were collected and mixed with 4× Bolt LDS Sample Buffer (Novex, Carlsbad, CA) in the presence of Halt protease inhibitors and phosphatase inhibitor cocktail (ThermoFisher scientific, #NP0007). The samples were subjected to SDS-PAGE (Bolt 4-12% Bis-Tris Plus, Invitrogen) using Bolt MES SDS running buffer or NuPAGE 3-8% Tris-Acetate gel using Tris-Acetate SDS running buffer (Novex). HUVECs (passage 6-8) were plated in EBM-2 basal medium (Lonza) with 0.2% FBS. Following overnight culture, cells were serum-starved in EBM-2 medium for 4 hrs prior to treatment with 50 ng/ml of VEGF165 or vehicle controls for various lengths. Equal amounts of protein lysates were analyzed by SDS-PAGE and blotted with the indicated antibodies. Proteins were transferred using Tris-Glycine buffer with 20% Methanol (Proteonomics grade) (Apex BioResearch Products). Membranes were first incubated with 5% milk in TBST, pH 7.6 (TEKnova, Hollister, CA), followed by blotting with primary and secondary antibodies. ECL anti-rabbit IgG, horseradish peroxidase linked whole antibody from donkey or sheep anti-mouse were obtained from GE Healthcare (UK limited). SuperSignal West Dura Extended Duration substrate was from ThermoFisher Scientific. In some cases, the same PVDF membranes were stripped by 8-min incubation in the Restore Plus Western Blot Stripping Buffer (ThermoFisher Scientific) to show total specific protein expression, followed by second stripping for (3-actin expression.

A further data set has as its system retinal vasculature. Description: Retinal neovascularization after intravitreal injection. The format is in vivo, mouse. The note with it: 500 ng ManN or Kif, 200 ng bFGF intravitreally; after seven days. As for the experimental part: The effect of ManN and Kif on inducing retinal neovascularization was assessed. The findings in cultured eye-derived EC were extended to a suitable in vivo model system. The mouse retina has been used extensively over the past decades to study both physiological and pathological angiogenesis. To obtain a detailed description of the retinal vasculature, images from retinal flat mounts were processed for vascular area fraction (ratio of area covered by blood vessels to total retinal area). Using this model, the effects of ManN in retinal neovascularization were assessed. Kif was also tested in this model because it is a water-soluble inhibitor and its mechanism of glycosylation inhibition is well established. In addition, it shares with ManN the ability to activate ERK, AKT and stress pathways in BCEC (FIG. 7E).
Assessment of retinal angiogenesis following intravitreal administration was done. Briefly, 6-8 weeks old C57BL/6 male mice were randomly allocated to different groups and anesthetized with ketamine/Xylazine cocktail. The indicated amounts of ManN, Kif or bFGF (R&D systems, AF-233-NA) in 1 μl of PBS and PBS vehicle control were injected intravitreally with a 33-gauge Hamilton syringe. Seven days after injection, animals were euthanized. Eyes were then enucleated and fixed in 4% paraformaldehyde (PFA) for 30 mins. Retinas were separated and stained with anti-CD31 immunofluorescence (IF) to evidence the vasculature. Evaluations were performed by an investigator blinded to the treatment. For CD31 IF, rat anti-mouse antibody (BD Biosciences, CAT #550274) was diluted 1:100 and incubated overnight at 4° C. After 4-hour incubation with the Alexa Fluor-488-conjugated anti-rat antibody (Life Technologies, A11006), whole mounts were imaged via the 488 nm channel using AIR Confocal STORM super-resolution system (Nikon). Quantification of vascular density in choroids and retina was carried out by Image J. Each experiment was repeated three times with similar results, and each treatment group consists of 5 individual samples.

For `O=C1N[C@@H]2[C@@H](O)[C@@H](O)[C@H](O)[C@@H](CO)N2C1=O` [Kif, Kifunensine, reference compound], the “BCEC proliferation by glycosylation inhibitors” value in data set [1] (0.01 to 100 μM, 3 days, absence or presence of 5 ng/ml VEGF) is on record as “stimulated in a dose-dependent fashion”. For the same compound, the “gap closing in BCEC scratch assay by glycosylation inhibitors” value in data set [2] (over 48 hours relative to control) is listed as “significant activity”. Besides, the “activation of the JNK pathway by glycosylation inhibitors” value with JNK/c-jun (40 μM, BCECs, FIG. 7E) was “able to activate the JNK pathway”. The “increase in density of retinal vessels vs PBS group” value in the data set with retinal vasculature is recorded as around 20%.
Turning to `N[C@H](C=O)[C@@H](O)[C@H](O)[C@H](O)CO` [ManN, 2-Amino-2-deoxy-D-mannose], in data set [1] (5 ng/ml VEGF), the “additivity with VEGF in promoting BCEC proliferation” value was “additive with VEGF in promoting BCEC proliferation”. Also, the “additivity with bFGF in promoting BCEC proliferation” value in data set [1] (20 ng/ml bFGF, FIG. 11A) was “Additive effects”. Further, the “shape of dose-response on BCEC proliferation” value in data set [1] (0.5 μM to 1 mM, 5-6 days, with or without VEGF) is given as “bell-shaped dose-response curve, with inhibition at higher concentrations”. For the same compound, the “dose range with significant stimulatory effects on BCEC proliferation” value in data set [1] (BCEC) is reported as 5-500 UM. Besides, in data set [1] (ManN at 50 μM alone, crystal violet, FIG. 1A), the “maximal fold increase in EC-covered surface” value was around 6.5 fold. Besides, the “cytotoxicity in glucose-free media” value in data set [1] (as little as 4 μM ManN, even in the presence of VEGF) is “significant cytotoxicity”. For the same compound, the “additivity between ManN and VEGF in glucose-free media” value in data set [1] (glucose-free media) is “abolished”. In addition, the “closure of the scratched area vs control” value in data set [2] (40 μM ManN or 50 ng/ml of VEGF, after 48 hours) is listed as “significantly accelerated BCEC migration and/or proliferation”. Moreover, the “additivity of ManN and VEGF in scratch assay” value in data set [2] (both ManN and VEGF) is “additivity was observed”. Moreover, the “activation of JNK and downstream c-Jun” value in the data set with JNK/c-jun (BCECs switched to media without growth factors, 4 μM-4 mM, four hours) is given as “significantly activated by ManN in a dose-dependent manner”. For the same compound, the “increase in density of retinal vessels vs PBS group” value with retinal vasculature is recorded as around 30%.
